{"source": "patent US12263172B2", "about": "“Toll-like receptor agonists for use in the treatment of hepatitis b” (priority 2019, dated 2025)", "key": {"[1]": {"tested_on": "HBV-infected PHHs", "assay": "antiviral activity of compound-stimulated human whole blood and PBMC supernatant in HBV-infected PHHs", "type": "cell-based"}, "[2]": {"assay": "genotoxic potential", "text": "(§1) Exposure increased more than dose-proportionally at low doses. Variability in exposure was high. • In vitro plasma protein binding was between 79.6% and 94.2% in animals and humans. Volume of distribution after intravenous dosing was high. […] Main metabolic pathways were oxygenation, hydrogenation, dehydrogenation, dealkylation, acetylation, glucuronidation, and/or glutathione conjugation. • In rats, >80% of drug-related material was found in feces, 11% to 20% in bile, and <4% in urine. […] There were no effects on embryofetal development up to 1 mg/kg/dose in rats and 30 mg/kg/dose in rabbits."}, "[3]": {"tested_on": "HBV", "assay": "anti-HBV activity in vivo in AAV/HBV mice", "conditions": "20 mg/kg"}, "[4]": {"assay": "14- and 28-day toxicity study in monkeys", "type": "in vivo", "conditions": "3, 15, and 100 mg/kg biw", "text": "as §1"}, "[5]": {"assay": "embryofetal development in rabbits", "type": "in vivo", "text": "as §1"}, "[6]": {"assay": "in vitro plasma protein binding", "type": "in vitro ADME", "conditions": "human, animals and humans", "text": "as §1"}, "[7]": {"assay": "6-month toxicity study in Cynomolgus monkeys", "conditions": "cynomolgus monkey, in vivo", "text": "as §1"}, "[8]": {"molecular_target": "T1, human TLR7 (Homo sapiens, UniProt Q9NYK1)", "T1 sequence (Q9NYK1 27-1049)": "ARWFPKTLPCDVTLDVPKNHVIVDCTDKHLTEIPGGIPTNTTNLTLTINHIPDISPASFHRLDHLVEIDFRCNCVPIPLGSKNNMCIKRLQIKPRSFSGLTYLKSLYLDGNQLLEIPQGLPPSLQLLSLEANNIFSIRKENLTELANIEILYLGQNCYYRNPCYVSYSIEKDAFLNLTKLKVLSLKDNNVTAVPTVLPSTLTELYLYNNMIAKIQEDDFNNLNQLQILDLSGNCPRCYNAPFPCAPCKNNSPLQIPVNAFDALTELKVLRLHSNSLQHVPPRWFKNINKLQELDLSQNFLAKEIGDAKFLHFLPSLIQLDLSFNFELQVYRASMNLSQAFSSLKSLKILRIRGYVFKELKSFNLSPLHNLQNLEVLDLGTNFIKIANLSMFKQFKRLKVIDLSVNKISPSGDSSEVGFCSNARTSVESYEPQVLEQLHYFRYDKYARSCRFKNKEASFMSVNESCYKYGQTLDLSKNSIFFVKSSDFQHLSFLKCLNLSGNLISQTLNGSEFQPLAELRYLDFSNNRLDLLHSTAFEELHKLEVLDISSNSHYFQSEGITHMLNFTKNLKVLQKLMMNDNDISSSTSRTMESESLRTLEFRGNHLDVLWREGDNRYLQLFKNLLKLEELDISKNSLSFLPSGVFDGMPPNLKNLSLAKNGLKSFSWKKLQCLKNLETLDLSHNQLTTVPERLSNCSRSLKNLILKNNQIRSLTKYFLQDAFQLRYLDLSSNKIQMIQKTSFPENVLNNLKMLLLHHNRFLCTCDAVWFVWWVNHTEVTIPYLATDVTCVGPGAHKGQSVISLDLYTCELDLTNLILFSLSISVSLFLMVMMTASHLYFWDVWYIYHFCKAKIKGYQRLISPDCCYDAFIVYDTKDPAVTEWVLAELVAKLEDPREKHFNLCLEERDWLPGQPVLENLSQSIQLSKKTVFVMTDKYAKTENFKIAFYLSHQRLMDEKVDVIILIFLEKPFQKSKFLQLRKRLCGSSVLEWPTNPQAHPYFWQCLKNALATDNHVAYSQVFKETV", "assay": "activation of human TLR7 (LEC)", "type": "cell-based"}, "[9]": {"assay": "embryofetal development in rats", "type": "in vivo", "text": "as §1"}, "[10]": {"tested_on": "cytokines and ISGs (ISG15, MX1, OAS1)", "assay": "Phase 1 multiple dose pharmacodynamics in healthy adults", "type": "in vivo, human", "conditions": "1.25 mg qw", "experimental": "Serum levels of IFN-α were measured by ELISA. Serum levels of IP-10, IFN-γ, TNF-α, IL-12 (subunit P40), IL-6, IL-1β, IL-1RA, IL-18, MCP-1, MIP-1β, G-CSF, GM-CSF, IL-10, IL-15 were measured by Luminex xMAP technology. The LLOQ for IFN-α was determined at 12.5 pg/mL and at 25 pg/mL for all other cytokines measured. Fold changes for each of the cytokines were calculated compared to predose values or LLOQ-1 values if predose values were below LLOQ.\nIFN-stimulated gene (ISG) expression analysis was conducted for 3 genes, ISG15, MX1, and OAS1, using quantitative polymerase chain reaction (qPCR) on collected whole blood samples. For the ISGs, relative fold changes from baseline were calculated according to the delta delta Cycle threshold (Ct) method (2^[Delta Delta Ct]). Assessments were done for Part 1 predose and postdose: 1.5 hours, 6 hours, 12 hours (Day 1), 24 hours (day 2), 48 hours (Day 3), 96 hours (Day 5), follow-up Week 2. For the Part 2, assessments were done predose and post the first and fourth dose: 2 hours, 4 hours, 12 hours, 24 hours, 48 hours, 96 hours and one week follow-up; and post the second and third doses: 12 hours and 48 hours."}, "[11]": {"assay": "off-target liabilities in vitro", "conditions": "read-out: lowest IC50 for off-target liabilities", "text": "as §1"}, "[12]": {"tested_on": "interferon-stimulated genes (ISGs) and cytokines in peripheral blood", "assay": "single oral administration in monkeys: tolerability, ISG and cytokine induction", "type": "in vivo", "text": "as §1"}, "[13]": {"assay": "pharmacokinetics in monkey", "conditions": "in vivo, po", "text": "as §1"}, "[14]": {"assay": "pharmacokinetics and excretion in rat", "type": "in vivo", "text": "as §1"}, "[15]": {"conditions": "12 hours after the second administration"}}}
{"smiles": "CCCCOc1nc(N)c2[nH]cc(Cc3ccc(CN4CCCC4)cc3)c2n1", "note": "[Compound 4]", "values": [{"measurement": "anti-HBV activity target concentration in vitro", "setting": "[1]", "result": 3.3, "unit": "nM"}, {"measurement": "maximum decline of HBV DNA compared to DMSO controls", "setting": "[1]; 3.3 nM", "result": 1.5, "unit": "log 10"}, {"measurement": "maximum decline of HBV RNA compared to DMSO controls", "setting": "[1]; 3.3 nM", "result": 1.1, "unit": "log 10"}, {"measurement": "maximum decline of HBeAg compared to DMSO controls", "setting": "[1]; 3.3 nM", "result": 1.3, "unit": "log 10"}, {"measurement": "maximum decline of HBsAg compared to DMSO controls", "setting": "[1]; 3.3 nM", "result": 0.4, "unit": "log 10"}, {"measurement": "genotoxic potential", "setting": "[2]", "result": "free of genotoxic potential"}, {"measurement": "HBsAg seroconversion", "setting": "[3]", "result": "in all animals"}, {"measurement": "HBsAg serum levels", "setting": "[3]", "result": "undetectable"}, {"measurement": "time post-treatment reductions in HBsAg levels were sustained", "setting": "[3]", "result": "up to 3 weeks"}, {"measurement": "brain inflammation", "setting": "[4]", "result": "Brain inflammation occurred"}, {"measurement": "dose without effects on embryofetal development", "setting": "[5]", "result": "≤ 30", "unit": "mg/kg/dose"}, {"measurement": "fraction unbound", "setting": "[6]", "result": "0.058 to 0.204"}, {"measurement": "NOAEL at 6 months", "setting": "[7]; q2w", "result": 4.5, "unit": "mg/kg"}, {"measurement": "NOAEL at 6 months", "setting": "[7]; qw", "result": 3, "unit": "mg/kg"}, {"measurement": "AUC(0-t)", "setting": "[7]; 3.0 mg/kg qw or 4.5 mg/kg q2w, read-out: AUC24h at NOAEL", "result": "13.2 to 44.8", "unit": "ng·h/mL"}, {"measurement": "Cmax", "setting": "[7]; 3.0 mg/kg qw or 4.5 mg/kg q2w, read-out: Cmax at NOAEL", "result": "2.56 to 16.4", "unit": "ng/mL"}, {"measurement": "lowest effective concentration (LEC) for activation of human TLR7", "setting": "[8]", "result": 70, "unit": "nM"}, {"measurement": "post-implantation loss and fetal weights", "setting": "[9]; pregnant rats, 3 mg/kg biw", "result": "Post-implantation loss and fetal weights effects were noted"}, {"measurement": "dose without effects on embryofetal development", "setting": "[9]; rats", "result": "up to 1 mg/kg/dose"}, {"measurement": "IFN-α or IP-10 levels before the subsequent dose", "setting": "[10]", "result": "values returned to baseline before administration of the subsequent dose"}, {"measurement": "PD responses after the last dose compared to the first dose", "setting": "[10]", "result": "No enhanced induction of PD responses as well as no evidence for tachyphylaxis"}, {"measurement": "fold increase of IFN-α in the subject with cotton wool spots", "setting": "[10]; [15]", "result": 8.4, "unit": "fold"}, {"measurement": "maximum IFN-α level in the subject with cotton wool spots", "setting": "[10]; [15]", "result": 97, "unit": "pg/mL"}, {"measurement": "IC50", "setting": "[11]", "result": "≥ 1970", "unit": "nM"}, {"measurement": "cytokine induction (IFN-α, IP-10, IL-1 RA, MCP-1)", "setting": "[12]; 0.6 mg/kg", "result": "induction of 4 of the 14 cytokines tested"}, {"measurement": "cytokine induction", "setting": "[12]; 0.1 and 0.15 mg/kg", "result": "only increases in IP-10 were detected"}, {"measurement": "ISG15, MX1 and OAS1 in peripheral blood", "setting": "[12]; each dose, 12-24 hours postdose", "result": "increase in all 3 major interferon-stimulated genes"}, {"measurement": "dose for which the LEC was observed (minimal target engagement)", "setting": "[12]; monkey, in vivo", "result": 0.1, "unit": "mg/kg"}, {"measurement": "tolerability", "setting": "[12]; single oral 0.05, 0.1, 0.15 and 0.6 mg/kg", "result": "well tolerated"}, {"measurement": "bioavailability", "setting": "[13]", "result": 1.5, "unit": "%"}, {"measurement": "bioavailability", "setting": "[14]; rat, in vivo, po", "result": 15, "unit": "%"}, {"measurement": "drug-related material found in feces", "setting": "[14]; rats", "result": "> 80", "unit": "%"}, {"measurement": "drug-related material found in urine", "setting": "[14]; rats", "result": "< 4", "unit": "%"}]}
